Results published in the NIST ThermoML archive (doi:10.1021/je800964k).
Numbers after ± are expanded uncertainties.

Conditions: Liquid, Hot wire method

COC [dimethyl ether]
Conditions	thermal conductivity [W/m/K]
234.04 K, 5100 kPa	0.1561 ± 0.0033
234.2 K, 600 kPa	0.1534 ± 0.0031
234.29 K, 600 kPa	0.153 ± 0.0031
234.33 K, 10000 kPa	0.16 ± 0.0033
234.43 K, 29800 kPa	0.1704 ± 0.0035
234.44 K, 30000 kPa	0.1709 ± 0.0035
234.58 K, 600 kPa	0.1538 ± 0.0031
234.66 K, 5300 kPa	0.1568 ± 0.0033
234.7 K, 20200 kPa	0.1655 ± 0.0034
234.71 K, 10400 kPa	0.1605 ± 0.0033
234.72 K, 5300 kPa	0.1562 ± 0.0032
234.79 K, 30100 kPa	0.1703 ± 0.0035
235 K, 20100 kPa	0.1654 ± 0.0034
235.27 K, 20200 kPa	0.1655 ± 0.0034
235.32 K, 10700 kPa	0.1598 ± 0.0033
253.99 K, 10200 kPa	0.1528 ± 0.0031
254.02 K, 600 kPa	0.1422 ± 0.0029
254.11 K, 20400 kPa	0.1582 ± 0.0032
254.12 K, 30200 kPa	0.1633 ± 0.0033
254.16 K, 600 kPa	0.1427 ± 0.0029
254.2 K, 20100 kPa	0.1579 ± 0.0032
254.22 K, 10400 kPa	0.1529 ± 0.0031
254.34 K, 30300 kPa	0.1643 ± 0.0033
254.37 K, 20100 kPa	0.1583 ± 0.0032
254.42 K, 600 kPa	0.1427 ± 0.0029
254.42 K, 5100 kPa	0.1467 ± 0.003
254.81 K, 10100 kPa	0.1522 ± 0.0031
254.88 K, 5100 kPa	0.1466 ± 0.003
255.08 K, 5000 kPa	0.1471 ± 0.003
257.35 K, 29900 kPa	0.164 ± 0.0033
273.93 K, 5000 kPa	0.1396 ± 0.0029
274.08 K, 5100 kPa	0.1396 ± 0.0029
274.48 K, 5000 kPa	0.1404 ± 0.0029
274.56 K, 29800 kPa	0.1585 ± 0.0032
274.57 K, 30400 kPa	0.1579 ± 0.0032
274.6 K, 20000 kPa	0.1523 ± 0.0031
274.9 K, 10500 kPa	0.1456 ± 0.003
274.9 K, 20300 kPa	0.1522 ± 0.0031
275.12 K, 20300 kPa	0.1523 ± 0.0031
275.22 K, 10200 kPa	0.1452 ± 0.003
275.3 K, 30600 kPa	0.1582 ± 0.0032
275.31 K, 700 kPa	0.1342 ± 0.0028
275.74 K, 700 kPa	0.1343 ± 0.0028
276.02 K, 10500 kPa	0.1459 ± 0.003
276.44 K, 700 kPa	0.1347 ± 0.0028
293.79 K, 5100 kPa	0.1305 ± 0.0027
293.8 K, 800 kPa	0.1249 ± 0.0026
294.15 K, 800 kPa	0.1252 ± 0.0026
294.16 K, 10000 kPa	0.1362 ± 0.0028
294.22 K, 10200 kPa	0.1364 ± 0.0028
294.3 K, 29800 kPa	0.1495 ± 0.003
294.45 K, 800 kPa	0.1248 ± 0.0026
294.45 K, 4900 kPa	0.1305 ± 0.0027
294.59 K, 29900 kPa	0.1486 ± 0.003
294.68 K, 20600 kPa	0.1417 ± 0.0029
294.84 K, 5200 kPa	0.1307 ± 0.0027
295.13 K, 20300 kPa	0.1417 ± 0.0029
295.22 K, 10000 kPa	0.1356 ± 0.0028
296.32 K, 20200 kPa	0.1415 ± 0.0029
314.01 K, 5100 kPa	0.1191 ± 0.0024
314.06 K, 1000 kPa	0.1143 ± 0.0023
314.11 K, 5200 kPa	0.1189 ± 0.0024
314.39 K, 1000 kPa	0.1145 ± 0.0024
314.39 K, 5100 kPa	0.1195 ± 0.0024
314.43 K, 10200 kPa	0.1242 ± 0.0025
314.6 K, 30100 kPa	0.1385 ± 0.0028
314.66 K, 1000 kPa	0.1137 ± 0.0023
314.81 K, 10200 kPa	0.1241 ± 0.0025
314.88 K, 30000 kPa	0.1382 ± 0.0028
315.01 K, 20400 kPa	0.1313 ± 0.0027
315.06 K, 10100 kPa	0.1242 ± 0.0025
315.07 K, 20100 kPa	0.1318 ± 0.0027
315.37 K, 30400 kPa	0.1384 ± 0.0028
315.55 K, 20000 kPa	0.1318 ± 0.0027
333.73 K, 1500 kPa	0.1079 ± 0.0022
333.92 K, 5200 kPa	0.1113 ± 0.0023
334.03 K, 1500 kPa	0.1075 ± 0.0022
334.09 K, 30000 kPa	0.1283 ± 0.0028
334.31 K, 20200 kPa	0.1229 ± 0.0025
334.38 K, 30100 kPa	0.1287 ± 0.0027
334.47 K, 1500 kPa	0.1078 ± 0.0022
334.55 K, 5100 kPa	0.1108 ± 0.0023
334.7 K, 10200 kPa	0.1156 ± 0.0024
334.79 K, 20200 kPa	0.1224 ± 0.0025
334.85 K, 5200 kPa	0.1116 ± 0.0023
334.9 K, 30200 kPa	0.1288 ± 0.0027
334.91 K, 10200 kPa	0.1154 ± 0.0024
335.09 K, 30400 kPa	0.1294 ± 0.0027
335.29 K, 20100 kPa	0.1228 ± 0.0025
335.37 K, 10100 kPa	0.1151 ± 0.0024
335.72 K, 20000 kPa	0.1223 ± 0.0025
335.76 K, 10300 kPa	0.1146 ± 0.0023
353.73 K, 10300 kPa	0.1059 ± 0.0022
353.93 K, 30500 kPa	0.1206 ± 0.0025
353.97 K, 30100 kPa	0.1208 ± 0.0025
354.06 K, 10200 kPa	0.1053 ± 0.0022
354.1 K, 20400 kPa	0.1145 ± 0.0023
354.15 K, 5800 kPa	0.0998 ± 0.0021
354.21 K, 2300 kPa	0.0973 ± 0.002
354.29 K, 5300 kPa	0.1005 ± 0.0021
354.45 K, 2300 kPa	0.097 ± 0.002
354.59 K, 30100 kPa	0.1208 ± 0.0025
354.86 K, 2300 kPa	0.0971 ± 0.002
354.97 K, 5200 kPa	0.1 ± 0.0021
355.08 K, 20000 kPa	0.1141 ± 0.0023
355.18 K, 2300 kPa	0.0971 ± 0.002
355.36 K, 20100 kPa	0.1142 ± 0.0023
355.46 K, 5200 kPa	0.1012 ± 0.0021
374.25 K, 10700 kPa	0.0988 ± 0.002
374.25 K, 20500 kPa	0.1071 ± 0.0022
374.3 K, 30400 kPa	0.1129 ± 0.0023
374.62 K, 30300 kPa	0.1133 ± 0.0023
374.81 K, 29900 kPa	0.1135 ± 0.0023
374.85 K, 3300 kPa	0.0871 ± 0.0018
374.85 K, 5100 kPa	0.0908 ± 0.0019
374.91 K, 5000 kPa	0.0908 ± 0.0019
375.13 K, 3300 kPa	0.0869 ± 0.0019
375.27 K, 5000 kPa	0.0911 ± 0.0019
375.38 K, 3300 kPa	0.0867 ± 0.0018
375.68 K, 20200 kPa	0.1065 ± 0.0022
376.02 K, 20000 kPa	0.1065 ± 0.0022
376.38 K, 10600 kPa	0.0976 ± 0.002
